{"source": "patent US6504031B1", "about": "“Naphthamidine urokinase inhibitors” (priority 1998, dated 2003)", "origin": "cited, not measured here", "key": {"angiogenesis": {"system": "angiogenesis", "conditions": "J. Cell Biol. 1991, 115[3 Pt 2], 402a"}, "tumor metastasis": {"system": "tumor metastasis", "conditions": "Anticancer Res. 1988, 8, 1373-1376"}}}
{"molecule": "N=C(N)NC(=O)c1nc(Cl)c(N)nc1N", "note": "[Amiloride]", "values": [{"measurement": "inhibition of angiogenesis in vitro", "setting": "angiogenesis", "result": "inhibit"}, {"measurement": "inhibition of tumor metastasis in vivo", "setting": "tumor metastasis", "result": "inhibit tumor metastasis"}]}
